These results are taken from patent publication US9988379B2, “GPR40 receptor agonist, methods of preparing the same, and pharmaceutical compositions containing the same as an active agent” (LG CHEM, LTD., priority 2012, dated 2018).

The structures appear in SMILES notation.

This experiment addresses T1, human GPR40 (Homo sapiens, UniProt O14842).
T1 construct: expressed in transfected cells; host or cells: CHO-K1
Description: Induction of Ca2+ (calcium flux assay) using human GPR40 expression cell line. It is filed as cell-based. The settings on record: read-out: EC0.5. The method, boiled down:
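Read-out is intracellular Ca2+ flux on FlexStation after test compounds (DMSO stocks diluted 200-fold in assay buffer) were added to dye-loaded human GPR40/CHO-K1 cells. Cells had been cultured 24 h, then incubated 1 h at 37° C with Calcium 5 dye, HBSS-HEPES pH 7.4; EC0.5 from concentration plot.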
In general terms: Calcium flux is commonly read through the fluorescence of an indicator in the cells.

T1 sequence (O14842 whole entry): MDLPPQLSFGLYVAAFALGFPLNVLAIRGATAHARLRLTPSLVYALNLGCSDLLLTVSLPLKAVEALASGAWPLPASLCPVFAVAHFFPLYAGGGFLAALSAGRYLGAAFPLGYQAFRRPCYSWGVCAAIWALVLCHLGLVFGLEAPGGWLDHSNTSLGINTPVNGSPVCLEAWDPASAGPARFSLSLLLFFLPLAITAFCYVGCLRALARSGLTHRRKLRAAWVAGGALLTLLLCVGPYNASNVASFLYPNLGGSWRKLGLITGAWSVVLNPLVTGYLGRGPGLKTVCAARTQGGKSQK

Take `CC#C[C@@H](CC(=O)O)c1ccc(OCc2ccc3c(cnn3CCS(C)(=O)=O)c2)cc1` [Example 174, (S)-3-{4-[1-(2-methanesulfonyl-ethyl)-1H-indazol-5-ylmethoxy]-phenyl}-hex-4-ynoic acid]: the EC50 was no less than 500 nM.
For the compound `CC#C[C@@H](CC(=O)O)c1ccc(OCc2ccc3c(cnn3CCOC)c2)cc1` [Example 175, (S)-3-{4-[1-(2-methoxy-ethyl)-1H-indazol-5-ylmethoxy]-phenyl}-hex-4-ynoic acid], the EC50 was in the range of 50 to 500 nM.
Then `CC#C[C@@H](CC(=O)O)c1ccc(OCc2ccc3c(cnn3CCCOC)c2)cc1` [Example 176, (S)-3-{4-[1-(3-methoxy-propyl)-1H-indazol-5-ylmethoxy]-phenyl}-hex-4-ynoic acid], with 40 nM; and `CC#C[C@@H](CC(=O)O)c1ccc(OCc2ccc3cnn(CC4(C)COC4)c3c2)cc1` [Example 177, (S)-3-{4-[1-(3-methyl-oxetan-3-ylmethyl)-1H-indazol-6-ylmethoxy]-phenyl}-hex-4-ynoic acid], with 1 to 50 nM; and `CC#C[C@@H](CC(=O)O)c1ccc(OCc2ccc3c(C)nn(CC(C)C)c3c2)cc1` [Example 178, (S)-3-[4-(1-isobutyl-3-methyl-1H-indazol-6-ylmethoxy)-phenyl]-hex-4-ynoic acid], with 1 to 50 nM.
With `CC#C[C@@H](CC(=O)O)c1ccc(OCc2ccc3c(C)n(CC(C)C)nc3c2)cc1` [Example 179, (S)-3-[4-(2-isobutyl-3-methyl-2H-indazol-6-ylmethoxy)-phenyl]-hex-4-ynoic acid] the figure was 1 to 50 nM.
For the compound `CC#C[C@@H](CC(=O)O)c1ccc(OCc2ccc3cnn(C(C)C)c3c2)cc1` [Example 180, (S)-3-[4-(1-isopropyl-1H-indazol-6-ylmethoxy)-phenyl]-hex-4-ynoic acid], the EC50 is 1 to 50 nM.
On to `CC#C[C@@H](CC(=O)O)c1ccc(OCc2ccc3onc(CC(C)C)c3c2)cc1` [Example 181, (S)-3-[4-(3-isobutyl-benzo[d]isoxazol-5-ylmethoxy)-phenyl]-hex-4-ynoic acid], for which the EC50 turned out to be 6 nM.
Then `CC#C[C@@H](CC(=O)O)c1ccc(OCc2ccc3cnn(CC(C)(C)C)c3c2)cc1` [Example 182, (S)-3-{4-[1-(2,2-dimethyl-propyl)-1H-indazol-6-ylmethoxy]-phenyl}-hex-4-ynoic acid], with 1 to 50 nM; and `CC#C[C@@H](CC(=O)O)c1ccc(OCc2cc3cnn(CC(C)C)c3cc2C)cc1` [Example 183, (S)-3-[4-(1-isobutyl-6-methyl-1H-indazol-5-ylmethoxy)-phenyl]-hex-4-ynoic acid], with 1 to 50 nM; and `CC#C[C@@H](CC(=O)O)c1ccc(OCc2cccc3c2cnn3CC(C)C)cc1` [Example 184, (S)-3-[4-(1-isobutyl-1H-indazol-4-ylmethoxy)-phenyl]-hex-4-ynoic acid], with 1 to 50 nM.
With `CC#C[C@@H](CC(=O)O)c1ccc(OCc2ccc3c(C)nn(C(C)C)c3c2)cc1` [Example 185, (S)-3-[4-(1-isopropyl-3-methyl-1H-indazol-6-ylmethoxy)-phenyl]-hex-4-ynoic acid] the figure was 1 to 50 nM; with `CC#C[C@@H](CC(=O)O)c1ccc(OCc2ccc3c(c2)c(CC(C)C)nn3C)cc1` [Example 186, (S)-3-[4-(3-isobutyl-1-methyl-1H-indazol-5-ylmethoxy)-phenyl]-hex-4-ynoic acid], 1 to 50 nM; with `CC#C[C@@H](CC(=O)O)c1ccc(OCc2ccc3c(c2)c(C)nn3C(C)C)cc1` [Example 187, (S)-3-[4-(1-isopropyl-3-methyl-1H-indazol-5-ylmethoxy)-phenyl]-hex-4-ynoic acid], 1 to 50 nM.
With `CC#C[C@@H](CC(=O)O)c1ccc(OCc2ccc3c(COC)nn(CC(C)C)c3c2)cc1` [Example 188, (S)-3-[4-(1-isobutyl-3-methoxymethyl-1H-indazol-6-ylmethoxy)-phenyl]-hex-4-ynoic acid] the figure was 5 nM.
As for `CC#C[C@@H](CC(=O)O)c1ccc(OCc2cccc3c2c(F)nn3CC(C)C)cc1` [Example 189, (S)-3-[4-(3-fluoro-1-isobutyl-1H-indazol-4-ylmethoxy)-phenyl]-hex-4-ynoic acid], the EC50 lay within 1 to 50 nM.
With `CC#C[C@@H](CC(=O)O)c1ccc(OCc2cccc3c2cnn3C(C)C)cc1` [Example 190, (S)-3-[4-(1-isopropyl-1H-indazol-4-ylmethoxy)-phenyl]-hex-4-ynoic acid] the figure was 40 nM.
With `CC#C[C@@H](CC(=O)O)c1ccc(OCc2ccc3c(COCC)nn(CC(C)C)c3c2)cc1` [Example 191, (S)-3-[4-(3-ethoxymethyl-1-isobutyl-1H-indazol-6-ylmethoxy)-phenyl]-hex-4-ynoic acid] the figure was 10 nM; with `CC#C[C@@H](CC(=O)O)c1ccc(OCc2cccc3c2c(Cl)nn3CC(C)C)cc1` [Example 192, (S)-3-[4-(3-chloro-1-isobutyl-1H-indazol-4-ylmethoxy)-phenyl]-hex-4-ynoic acid], 30 nM; with `CC#C[C@@H](CC(=O)O)c1ccc(OCc2ccc3c(COC(C)C)nn(CC(C)C)c3c2)cc1` [Example 193, (S)-3-[4-(1-isobutyl-3-isopropoxymethyl-1H-indazol-6-ylmethoxy)-phenyl]-hex-4-ynoic acid], 3 nM.
In the case of `CC#C[C@@H](CC(=O)O)c1ccc(OCc2cccc3c2c(F)nn3C(C)C)cc1` [Example 194, (S)-3-[4-(3-fluoro-1-isopropyl-1H-indazol-4-ylmethoxy)-phenyl]-hex-4-ynoic acid], the EC50 was in the range of 1 to 50 nM.
On to `CC#C[C@@H](CC(=O)O)c1ccc(OCc2cccc3c(Br)nn(C)c23)cc1` [Example 195, (S)-3-[4-(3-bromo-1-methyl-1H-indazol-7-ylmethoxy)-phenyl]-hex-4-ynoic acid], for which the EC50 amounted to 6 nM.
Then `CC#C[C@@H](CC(=O)O)c1ccc(OCc2ccc3c(COC)nn(CC(C)C)c3c2C)cc1` [Example 196, (S)-3-[4-(1-isobutyl-3-methoxymethyl-7-methyl-1H-indazol-6-ylmethoxy)-phenyl]-hex-4-ynoic acid], with 5 nM.
Take `CC#C[C@@H](CC(=O)O)c1ccc(OCc2cccc3c2cnn3CCCC)cc1` [Example 197, (S)-3-[4-(1-butyl-1H-indazol-4-ylmethoxy)-phenyl]-hex-4-ynoic acid]: the EC50 is 5 nM.
With `CC#C[C@@H](CC(=O)O)c1ccc(OCc2cccc3c2c(F)nn3CCCC)cc1` [Example 198, (S)-3-[4-(1-butyl-3-fluoro-1H-indazol-4-ylmethoxy)-phenyl]-hex-4-ynoic acid] the figure was 16 nM; with `CC#C[C@@H](CC(=O)O)c1ccc(OCc2cccc3c2cnn3CC2CC2)cc1` [Example 199, (S)-3-[4-(1-cyclopropylmethyl-1H-indazol-4-ylmethoxy)-phenyl]-hex-4-ynoic acid], 17 nM; with `CC#C[C@@H](CC(=O)O)c1ccc(OCc2cccc3c2c(F)nn3CC2CC2)cc1` [Example 200, (S)-3-[4-(1-cyclopropylmethyl-3-fluoro-1H-indazol-4-ylmethoxy)-phenyl]-hex-4-ynoic acid], 9 nM.
With `CC#C[C@@H](CC(=O)O)c1ccc(OCc2cccc3c(Cl)nn(C)c23)cc1` [Example 201, (S)-3-[4-(3-chloro-1-methyl-1H-indazol-7-ylmethoxy)-methyl]-hex-4-ynoic acid] the figure was 10 nM; with `CC#C[C@@H](CC(=O)O)c1ccc(OCc2ccc3c(Cn4cccn4)nn(C(C)C)c3c2)cc1` [Example 202, (S)-3-[4-(1-isopropyl-3-pyrazol-1-ylmethyl-1H-indazol-6-ylmethoxy)-phenyl]-hex-4-ynoic acid], 8 nM; with `CC#C[C@@H](CC(=O)O)c1ccc(OCc2cccc3c(F)nn(C)c23)cc1` [Example 203, (S)-3-[4-(3-fluoro-1-methyl-1H-indazol-7-ylmethoxy)-phenyl]-hex-4-ynoic acid], 1 to 50 nM.
For `CC#C[C@@H](CC(=O)O)c1ccc(OCc2ccnc3c2ccn3CC(C)C)cc1` [Example 204, (S)-3-[4-(1-isobutyl-1H-pyrrolo[2,3-b]pyridin-4-ylmethoxy)-phenyl]-hex-4-ynoic acid], the EC50 is 9 nM.
Then `CC#C[C@@H](CC(=O)O)c1ccc(OCc2cccc3c2c(C)nn3CCCC)cc1` [Example 205, (S)-3-[4-(1-butyl-3-methyl-1H-indazol-4-ylmethoxy)-phenyl]-hex-4-ynoic acid], with 16 nM.
Then `CC#C[C@@H](CC(=O)O)c1ccc(OCc2cccc3c(CCCC)nn(C)c23)cc1` [Example 206, (S)-3-[4-(3-butyl-1-methyl-1H-indazol-7-ylmethoxy)-phenyl]-hex-4-ynoic acid], with 1 to 50 nM; and `CC#C[C@@H](CC(=O)O)c1ccc(OCc2cccc3c(CC(C)C)nn(C)c23)cc1` [Example 207, (S)-3-[4-(3-isobutyl-1-methyl-1H-indazol-7-ylmethoxy)-phenyl]-hex-4-ynoic acid], with 1 to 50 nM; and `CC#C[C@@H](CC(=O)O)c1ccc(OCc2ccc(C)c3c2cnn3CC(C)C)cc1` [Example 208, (S)-3-[4-(1-isobutyl-7-methyl-1H-indazol-4-ylmethoxy)-phenyl]-hex-4-ynoic acid], with 5 nM.
Turning to `CC#C[C@@H](CC(=O)O)c1ccc(OCc2cccc3c(C(C)C)nn(C)c23)cc1` [Example 209, (S)-3-[4-(3-isopropyl-1-methyl-1H-indazol-7-ylmethoxy)-phenyl]-hex-4-ynoic acid], the EC50 lay in the range of 1 to 50 nM.
Regarding `CC#C[C@@H](CC(=O)O)c1ccc(OCc2cccc3c(CCC)nn(C)c23)cc1` [Example 210, (S)-3-[4-(1-methyl-3-propyl-1H-indazol-7-ylmethoxy)-phenyl]-hex-4-ynoic acid], the EC50 is 8 nM.
For the compound `CC#C[C@@H](CC(=O)O)c1ccc(OCc2ccc3cnn(CC(C)C)c3c2C)cc1` [Example 211, (S)-3-[4-(1-isobutyl-7-methyl-1H-indazol-6-ylmethoxy)-phenyl]-hex-4-ynoic acid], the EC50 was determined as 4 nM.
